One assay addresses T1, 5-HT1A (Homo sapiens, UniProt P08908).
T1 sequence (P08908 1-422): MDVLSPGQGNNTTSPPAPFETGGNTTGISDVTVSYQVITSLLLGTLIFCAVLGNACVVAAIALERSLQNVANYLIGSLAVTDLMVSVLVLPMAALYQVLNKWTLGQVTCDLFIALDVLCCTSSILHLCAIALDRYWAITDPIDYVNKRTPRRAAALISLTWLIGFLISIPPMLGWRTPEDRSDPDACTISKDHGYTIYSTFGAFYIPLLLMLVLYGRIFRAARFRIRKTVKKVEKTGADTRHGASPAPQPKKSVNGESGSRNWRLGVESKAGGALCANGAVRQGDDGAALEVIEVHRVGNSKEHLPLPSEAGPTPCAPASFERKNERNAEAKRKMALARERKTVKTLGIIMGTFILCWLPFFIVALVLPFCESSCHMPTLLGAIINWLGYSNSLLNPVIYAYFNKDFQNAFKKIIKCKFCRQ
Kind of assay: NIMH PDSP primary binding screen, 5-HT1A. Conditions: read-out: Inhibition (%) 5-HT1A.

The target in a further assay is T2, Human sEH (Homo sapiens, UniProt P34913).
T2 sequence (P34913 1-555): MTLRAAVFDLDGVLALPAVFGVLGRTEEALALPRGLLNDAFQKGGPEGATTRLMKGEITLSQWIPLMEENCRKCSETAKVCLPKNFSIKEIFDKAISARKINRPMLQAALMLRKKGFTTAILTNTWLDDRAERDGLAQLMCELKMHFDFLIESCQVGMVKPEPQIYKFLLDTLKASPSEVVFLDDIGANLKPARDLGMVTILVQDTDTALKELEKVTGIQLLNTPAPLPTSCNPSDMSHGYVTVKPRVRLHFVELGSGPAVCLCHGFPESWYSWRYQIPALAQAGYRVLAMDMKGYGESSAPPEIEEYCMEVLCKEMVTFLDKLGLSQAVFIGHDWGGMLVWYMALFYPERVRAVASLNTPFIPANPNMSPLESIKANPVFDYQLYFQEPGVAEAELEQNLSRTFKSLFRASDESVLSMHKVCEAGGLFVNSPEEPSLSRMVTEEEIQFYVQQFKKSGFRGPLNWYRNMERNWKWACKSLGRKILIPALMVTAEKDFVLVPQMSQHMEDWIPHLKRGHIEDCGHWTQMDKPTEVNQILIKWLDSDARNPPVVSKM
Description: sEH fluorescent-based inhibition assay. It counts as biochemical.

For the next assay, the target named is 5-HT1D (Homo sapiens, UniProt P28221). Description: NIMH PDSP primary binding screen, 5-HT1D. Conditions: read-out: Inhibition (%) 5-HT1D.

As a reminder, the inhibition is the share of the control response that was lost under treatment. One may read the IC50 as the concentration needed to halve the response being measured.

Chain of 5-HT1D (P28221 whole entry, species assumed): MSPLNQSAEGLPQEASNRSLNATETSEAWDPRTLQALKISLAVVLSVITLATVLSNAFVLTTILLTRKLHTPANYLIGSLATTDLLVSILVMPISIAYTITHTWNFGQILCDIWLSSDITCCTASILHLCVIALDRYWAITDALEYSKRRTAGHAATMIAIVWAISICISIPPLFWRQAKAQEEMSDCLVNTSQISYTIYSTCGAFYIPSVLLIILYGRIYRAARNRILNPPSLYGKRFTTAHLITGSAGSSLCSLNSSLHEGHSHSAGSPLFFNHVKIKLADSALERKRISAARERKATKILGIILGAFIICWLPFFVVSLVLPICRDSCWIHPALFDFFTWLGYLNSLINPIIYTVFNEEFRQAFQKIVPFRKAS

Consider `O=C(Nc1ccc(-c2ccc3ccncc3c2)cc1)C1CCN(S(=O)(=O)c2ccccc2Cl)CC1` [Compound 4f, 1-((2-chlorophenyl)sulfonyl)-N-(4-(isoquinolin-7-yl)phenyl)piperidine-4-carboxamide], for which the inhibition at 10 µM was 4.83 ± 2.43% at 5-HT1A and 40.9 ± 11.2% at 5-HT1D. Also, the half-maximal inhibitory concentration (IC50) against Human sEH was found to be 2.2 nM.

The values above are taken from PMC12018053 (Biochemistry and Biophysics Reports, 2025).
